According to PubChem BioAssay AID330 (DTP/NCI, 2004):
Several values for one entry are separate records, joined by “and”; a condition that tells them apart may be missing. Equal values may be shown once. Inconclusive results and toxic doses are left out.

Test system: P388 leukemia ip, CD2F1 mice, survival T/C
Assay: NCI In Vivo Anticancer Drug Screen. Data for tumor model P388 Leukemia (intraperitoneal) in CD2F1 (CDF1) mice
Conditions: endpoint: median survival time, higher = longer survival
Procedure, shortened: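 Mice carrying the transplanted tumor received test compound or vehicle. Survival was recorded in each group, and the value is the treated-group measurement divided by that of the vehicle-treated control group.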

[1] = dose: 100.0 mg/kg/injection, schedule: Q04DX003 (ip), vehicle: saline
[2] = dose: 50.0 mg/kg/injection, schedule: Q01DX005 (ip), vehicle: saline with Tween-80
[3] = dose: 240.0 mg/kg/injection, schedule: Q01DX005 (ip), vehicle: saline with Tween-80
[4] = dose: 100.0 mg/kg/injection, schedule: Q01DX005 (ip), vehicle: saline with Tween-80
[5] = dose: 200.0 mg/kg/injection, schedule: Q01DX005 (ip), vehicle: saline with Tween-80
[6] = dose: 12.5 mg/kg/injection, schedule: Q01DX009 (ip), vehicle: water
[7] = dose: 25.0 mg/kg/injection, schedule: Q01DX009 (ip), vehicle: water
[8] = dose: 50.0 mg/kg/injection, schedule: Q01DX009 (ip), vehicle: water
[9] = dose: 50.0 mg/kg/injection, schedule: Q01DX005 (ip), vehicle: Klucel (hydroxypropylcellulose) (HPC)
[10] = dose: 100.0 mg/kg/injection, schedule: Q01DX005 (ip), vehicle: Klucel (hydroxypropylcellulose) (HPC)
[11] = dose: 200.0 mg/kg/injection, schedule: Q01DX005 (ip), vehicle: Klucel (hydroxypropylcellulose) (HPC)
[12] = dose: 60.0 mg/kg/injection, schedule: Q01DX005 (ip), vehicle: saline with Tween-80
[13] = dose: 120.0 mg/kg/injection, schedule: Q01DX005 (ip), vehicle: saline with Tween-80

O=P(c1ccccc1)(c1ccccc1)c1ccccc1.O=P(c1ccccc1)(c1ccccc1)c1ccccc1.O=P(c1ccccc1)(c1ccccc1)c1ccccc1.O=P(c1ccccc1)(c1ccccc1)c1ccccc1.[Cr+3].[O-][Cl+3]([O-])([O-])O
T/C (dose: 100.0 mg/kg/injection, schedule: Q04DX003 (ip), vehicle: saline + Tween-80 + alcohol): 101 % of control
T/C (dose: 200.0 mg/kg/injection, schedule: Q04DX003 (ip), vehicle: saline + Tween-80 + alcohol): 100 % of control

CC1(C)COC(=O)/C1=C1\SC(=S)NC1=O
T/C [1]: 103 % of control
T/C (dose: 200.0 mg/kg/injection, schedule: Q04DX003 (ip), vehicle: saline): 92 % of control

c1ccc(OCC2CO2)c(OCC2CO2)c1 (stereo not given)
T/C (dose: 1.88 mg/kg/injection, schedule: Q01DX005 (ip), vehicle: saline with Tween-80): 100 % of control
T/C (dose: 3.75 mg/kg/injection, schedule: Q01DX005 (ip), vehicle: saline with Tween-80): 100 % of control
T/C (dose: 7.5 mg/kg/injection, schedule: Q01DX005 (ip), vehicle: saline with Tween-80): 99 % of control
T/C (dose: 15.0 mg/kg/injection, schedule: Q01DX005 (ip), vehicle: saline with Tween-80): 111 % of control and 114 % of control and 121 % of control
T/C (dose: 25.0 mg/kg/injection, schedule: Q01DX005 (ip), vehicle: saline with Tween-80): 104 % of control
T/C [2]: 112 % of control
T/C [3]: 156 % of control and 157 % of control and 201 % of control

CC1(O)CC[N+](C)(C)CC1c1ccccc1 (stereo not given)
T/C (dose: 50.0 mg/kg/injection, schedule: Q04DX003 (ip), vehicle: saline): 118 % of control
T/C [1]: 113 % of control

CCOc1ccc(-n2c(=O)c(N=Nc3ccc(OC)cc3)c(O)n(-c3ccccc3Cl)c2=S)cc1
T/C (dose: 50.0 mg/kg/injection, schedule: Q01DX001 (ip), vehicle: Klucel (hydroxypropylcellulose) (HPC)): 97 % of control
T/C (dose: 100.0 mg/kg/injection, schedule: Q01DX001 (ip), vehicle: Klucel (hydroxypropylcellulose) (HPC)): 94 % of control
T/C (dose: 200.0 mg/kg/injection, schedule: Q01DX001 (ip), vehicle: Klucel (hydroxypropylcellulose) (HPC)): 94 % of control

CC(c1ccc2c(c1)CCC1C2C2OC2C2(O)CC=CC(=O)C12C)C1CC2(C)OC2(C)C(O)O1 (stereo not given)
T/C (dose: 3.0 mg/kg/injection, schedule: Q01DX009 (ip), vehicle: saline with Tween-80): 113 % of control
T/C (dose: 6.0 mg/kg/injection, schedule: Q01DX009 (ip), vehicle: saline with Tween-80): 100 % of control
T/C (dose: 12.0 mg/kg/injection, schedule: Q01DX009 (ip), vehicle: saline with Tween-80): 109 % of control
T/C (dose: 24.0 mg/kg/injection, schedule: Q01DX009 (ip), vehicle: saline with Tween-80): 107 % of control
T/C (dose: 48.0 mg/kg/injection, schedule: Q01DX009 (ip), vehicle: saline with Tween-80): 102 % of control

COc1ccc2c(c1O)Oc1c(O)ccc3c1C(C2)N(C)CC3 (stereo not given)
T/C (dose: 2.5 mg/kg/injection, schedule: Q01DX005 (ip), vehicle: Klucel (hydroxypropylcellulose) (HPC)): 107 % of control
T/C (dose: 5.0 mg/kg/injection, schedule: Q01DX005 (ip), vehicle: Klucel (hydroxypropylcellulose) (HPC)): 100 % of control
T/C (dose: 10.0 mg/kg/injection, schedule: Q01DX005 (ip), vehicle: Klucel (hydroxypropylcellulose) (HPC)): 102 % of control
T/C (dose: 20.0 mg/kg/injection, schedule: Q01DX005 (ip), vehicle: Klucel (hydroxypropylcellulose) (HPC)): 100 % of control

CCOC(=O)CCN(Cc1ccccc1)CC(C)C(=O)OC (stereo not given)
T/C (dose: 100.0 mg/kg/injection, schedule: Q04DX003 (ip), vehicle: saline with Tween-80): 100 % of control
T/C (dose: 200.0 mg/kg/injection, schedule: Q04DX003 (ip), vehicle: saline with Tween-80): 100 % of control
T/C (dose: 400.0 mg/kg/injection, schedule: Q04DX003 (ip), vehicle: saline with Tween-80): 100 % of control

CSC(=S)C(CNc1ncccn1)c1ccccc1 (stereo not given)
T/C (dose: 60.0 mg/kg/injection, schedule: Q01DX005 (ip), vehicle: Klucel + Tween-80): 89 % of control
T/C (dose: 120.0 mg/kg/injection, schedule: Q01DX005 (ip), vehicle: Klucel + Tween-80): 89 % of control

O=C1CCC(=O)N1CC(O)COc1ccccc1 (stereo not given)
T/C (dose: 100.0 mg/kg/injection, schedule: Q01DX009 (ip), vehicle: saline with Tween-80): 95 % of control
T/C (dose: 200.0 mg/kg/injection, schedule: Q01DX009 (ip), vehicle: saline with Tween-80): 95 % of control
T/C (dose: 400.0 mg/kg/injection, schedule: Q01DX009 (ip), vehicle: saline with Tween-80): 100 % of control

CC1=NN(c2ccccc2)C(=O)C1=Nc1c(C)[nH]n(-c2ccccc2)c1=O
T/C (dose: 15.0 mg/kg/injection, schedule: Q01DX009 (ip), vehicle: saline with Tween-80): 103 % of control
T/C (dose: 30.0 mg/kg/injection, schedule: Q01DX009 (ip), vehicle: saline with Tween-80): 101 % of control
T/C [2]: 114 % of control and 96 % of control
T/C (dose: 60.0 mg/kg/injection, schedule: Q01DX009 (ip), vehicle: saline with Tween-80): 105 % of control
T/C [4]: 104 % of control and 102 % of control
T/C [5]: 98 % of control and 110 % of control

O=S(=O)(OI(O)c1ccccc1)c1ccc(Cl)cc1
T/C [6]: 101 % of control
T/C [7]: 105 % of control
T/C [8]: 109 % of control and 114 % of control

CC1=C/C(=C(\c2cc(C)c(O)c(C(=O)O)c2)c2c(Cl)cccc2Cl)C=C(C(=O)O)C1=O
T/C [2]: 103 % of control
T/C [4]: 100 % of control
T/C [5]: 100 % of control

NC(=O)c1cncc(C(=O)O)c1
T/C [9]: 106 % of control
T/C [10]: 101 % of control
T/C [11]: 100 % of control

COC(=O)CCC(N)C(=O)NC(Cc1ccccc1)C(=O)NC(C)C(=O)NC1C(O)OC(CO)C(O)C1O (stereo not given)
T/C (dose: 60.0 mg/kg/injection, schedule: Q01DX005 (ip), vehicle: saline): 99 % of control
T/C (dose: 120.0 mg/kg/injection, schedule: Q01DX005 (ip), vehicle: saline): 98 % of control
T/C (dose: 240.0 mg/kg/injection, schedule: Q01DX005 (ip), vehicle: saline): 99 % of control

O=c1ncccn1[C@@H]1O[C@H](CO)[C@H](O)C1O (stereo not given in full)
T/C (dose: 6.25 mg/kg/injection, schedule: Q01DX009 (ip), vehicle: water): 103 % of control
T/C [6]: 104 % of control
T/C [7]: 101 % of control
T/C [8]: 102 % of control
T/C (dose: 100.0 mg/kg/injection, schedule: Q01DX009 (ip), vehicle: water): 108 % of control
T/C (dose: 400.0 mg/kg/injection, schedule: Q01DX009 (ip), vehicle: saline): 152 % of control

CCCCCCCCCCCCCCCCN(C(C)C)S(=O)(=O)c1ccc(Cl)c([N+](=O)[O-])c1
T/C (dose: 50.0 mg/kg/injection, schedule: Q04DX003 (ip), vehicle: saline sonified): 90 % of control
T/C (dose: 100.0 mg/kg/injection, schedule: Q04DX003 (ip), vehicle: saline sonified): 95 % of control
T/C (dose: 200.0 mg/kg/injection, schedule: Q04DX003 (ip), vehicle: saline sonified): 95 % of control

Cc1cc(=O)c2c(ccc3c(=O)cc(C)[nH]c32)[nH]1
T/C (dose: 30.0 mg/kg/injection, schedule: Q01DX005 (ip), vehicle: saline with Tween-80): 93 % of control
T/C [12]: 91 % of control
T/C [13]: 100 % of control and 91 % of control

NC(=O)C(N)CCc1ccccc1 (stereo not given)
T/C [12]: 100 % of control
T/C [13]: 102 % of control
T/C [3]: 96 % of control

Cc1ccc2[nH]c3c(c2c1)C(=O)CCC3
T/C [9]: 97 % of control
T/C [10]: 95 % of control
T/C [11]: 92 % of control

COC(=O)c1nc(N)nc(C(=O)OC)c1C(=O)C(C)C
T/C [12]: 97 % of control
T/C [13]: 98 % of control

CC(=O)OC1CC2C(C)(C)OC(=O)C=CC2(C)C2CCC3(C)C(c4ccoc4)C(=O)C4OC43C12C (stereo not given)
T/C (dose: 7.5 mg/kg/injection, schedule: Q01DX005 (ip), vehicle: Klucel (hydroxypropylcellulose) (HPC)): 88 % of control
T/C (dose: 15.0 mg/kg/injection, schedule: Q01DX005 (ip), vehicle: Klucel (hydroxypropylcellulose) (HPC)): 93 % of control
T/C (dose: 30.0 mg/kg/injection, schedule: Q01DX005 (ip), vehicle: Klucel (hydroxypropylcellulose) (HPC)): 95 % of control
T/C (dose: 60.0 mg/kg/injection, schedule: Q01DX005 (ip), vehicle: Klucel (hydroxypropylcellulose) (HPC)): 93 % of control
